US11413283B2, “Topical formulations for delivery of hedgehog inhibitor compounds and use thereof” (PellePharm, Inc., priority 2015, dated 2022)
Where two headings read alike, the source gives them in different places. Each block holds one molecule with its values, some of them ahead of it.

What was measured:
[1] = Saturated solubility of itraconazole in solvents and solvent systems; assay type: physicochemical
[2] = tested on: Hedgehog (Hh) signaling pathway; conditions: Kim and Beachy, Cancer Cell, 17, 388-399, 2010; read-out: IC50 value for itraconazole (half maximal inhibitory concentration); cited from earlier work
[3] = Toxicokinetics of patidegib and metabolite IPI-230 in plasma after twice daily dermal application for 13 weeks; assay type: in vivo, Gottingen Minipig; conditions: for Cmax / AUC(0-t) / Tmax: Gottingen, minipig, plasma, topical or ocular; for Cmax / AUC(0-t): Gottingen Minipig plasma; for AUC(0-t): read-out: Mean Patidegib AUC0-24; for Tmax: dermal, minipig plasma, read-out: Individual Tmax
Experimental: A study was conducted to evaluate the toxicokinetics of patidegib when administered twice daily via dermal application for 13 weeks. As described in Example 11, the formulation identified herein as SS14 was prepared, with patidegib concentrations of 2% and 4%. The formulations, along with a placebo, were applied topically to Gottingen Minipigs® twice daily, and blood samples were collected on study days 1, 14 and 90 for analysis of patidegib and its metabolite, IPI-230.
A study was conducted to determine the toxicokinetics of patidegib and its metabolite, IPI-230, when patidegib was administered twice daily (approximately 8 hours apart) to Gottingen Minipigs® via dermal application for 13 weeks.
The formulation identified herein as SS14 was prepared, with 2% patidegib and with 4% patidegib. A placebo formulation was also prepared that was identical in all respects to SS14 except for the absence of the patidegib. The formulation was applied topically to the animals at patidegib dose levels of 0 mg/kg/day (untreated), 0 mg/kg/day (placebo), 40 mg/kg/day, and 80 mg/kg/day to Groups 1, 2, 3, and 4, respectively. Groups 1 and 3 consisted of four animals/sex/group and Groups 2 and 4 consisted of six animals/sex/group. Doses were administered twice daily (approximately 8 hours apart). Blood samples were collected from all animals, survival permitting, on Days 1, 14 (Group 4 only), and 90 predose and at approximately 2, 4, 6, 8 (just prior to the second daily dose), 10, 12, 14, 16, and 24 hours following the first daily dose. Plasma samples were assayed for patidegib and IPI-230. Only the 2-hour samples from the untreated and placebo groups were analyzed.
Noncompartmental analysis was applied to the individual plasma patidegib and IPI-230 concentration data for males and females. The following parameters were estimated: Cmax—Maximum observed concentration; Tmax—Time of maximum observed concentration; AUCTlast—Area under the concentration-time curve from hour 0 to the last measurable concentration, estimated by the linear trapezoidal rule; AUC0-24—Area under the concentration-time curve from hour 0 to hour 24, estimated by the linear trapezoidal rule; DN AUC0-24—Dose normalized AUC0-24, calculated as AUC0-24/dose level; DN Cmax—Dose normalized Cmax, calculated as Cmax/dose level.

[4] = tested on: cellular hedgehog pathway; conditions: Tremblay et al., J. Med. Chem. 2009; read-out: half maximal effective concentration for inhibition of cellular hedgehog pathway; cited from earlier work
[5] = minimum of 24 hours stirring at 25° C.
[6] = both sexes, 40 mg/kg/day, Day 90, Group 3, 40 mg/kg/day dermal twice daily, sexes combined MF
[7] = both sexes, 80 mg/kg/day, Day 1, Group 4, 80 mg/kg/day dermal twice daily, sexes combined MF
[8] = both sexes, 80 mg/kg/day, Day 14, Group 4, 80 mg/kg/day dermal twice daily, sexes combined MF
[9] = both sexes, 80 mg/kg/day, Day 90, Group 4, 80 mg/kg/day dermal twice daily, sexes combined MF
[10] = female, 40 mg/kg/day, Day 1, Group 3, 40 mg/kg/day dermal twice daily, sex F
[11] = female, 40 mg/kg/day, Day 90, Group 3, 40 mg/kg/day dermal twice daily, sex F
[12] = female, 80 mg/kg/day, Day 1, Group 4, 80 mg/kg/day dermal twice daily, sex F
[13] = female, 80 mg/kg/day, Day 14, Group 4, 80 mg/kg/day dermal twice daily, sex F
[14] = female, 80 mg/kg/day, Day 90, Group 4, 80 mg/kg/day dermal twice daily, sex F
[15] = male, 40 mg/kg/day, Day 90, Group 3, 40 mg/kg/day dermal twice daily, sex M
[16] = male, 80 mg/kg/day, Day 1, Group 4, 80 mg/kg/day dermal twice daily, sex M
[17] = male, 80 mg/kg/day, Day 14, Group 4, 80 mg/kg/day dermal twice daily, sex M
[18] = male, 80 mg/kg/day, Day 90, Group 4, 80 mg/kg/day dermal twice daily, sex M

solubility of itraconazole in water [1]: highly insoluble
saturated solubility of itraconazole in N-methyl pyrrolidone [1, 5]: 7.65 % w/w
solubility of itraconazole in benzyl alcohol [1, 5]: 14.97 % w/w
solubility of itraconazole in castor oil [1, 5]: 0.01-0.05 % w/w
solubility of itraconazole in diisopropyl adipate [1, 5]: 0.01-0.05 % w/w
solubility of itraconazole in dimethicone 350 CST [1, 5]: 0.01-0.05 % w/w
solubility of itraconazole in dimethyl isosorbide [1, 5]: 2.32 % w/w
solubility of itraconazole in ethanol [1, 5]: 0.01-0.05 % w/w
solubility of itraconazole in phenoxyethanol [1, 5]: 7.87 % w/w
solubility of itraconazole in the remaining solvents investigated (not shown) [1, 5]: 0.01-0.20 % w/w
SMILES: CCC(C)n1ncn(-c2ccc(N3CCN(c4ccc(OCC5COC(Cn6cncn6)(c6ccc(Cl)cc6Cl)O5)cc4)CC3)cc2)c1=O [itraconazole, (2R,4S)-rel-1-(butan-2-yl)-4-{4-[4-(4-(4-{[(2R,4S)-2-(2,4-dichlorophenyl)-2-(1H-1,2,4-triazol-1-ylmethyl)-1,3-dioxolan-4-yl]methoxy}phenyl)piperazin-1-yl]phenyl}-4,5-dihydro-1H-1,2,4-triazol-5-one]
IC50 [2]: 800 nM

SMILES: CC1=C2C[C@H]3[C@@H](CC[C@@H]4C[C@H](NS(C)(=O)=O)CC[C@@]43C)[C@@H]2CC[C@@]2(C1)O[C@@H]1C[C@H](C)CN[C@H]1[C@H]2C [patidegib]
dose proportionality of increases in mean Cmax and AUC0-24 ([3]; 40 to 80 mg/kg/day, Day 90): generally greater than dose proportional
Cmax [3, 6]: 21.9 ng/mL
AUC(0-t) [3, 6]: 329 ng·h/mL
Cmax [3, 7]: 3.93 ng/mL
AUC(0-t) [3, 7]: 37.1 ng·h/mL
Cmax [3, 8]: 249 ng/mL
AUC(0-t) [3, 8]: 4110 ng·h/mL
Cmax [3, 9]: 75.8 ng/mL
AUC(0-t) [3, 9]: 1240 ng·h/mL
Tmax ([3]; both sexes, post the first or second dose on Day 1): 2 to 8 h
Tmax ([3]; both sexes, post the first or second dose on Days 14 and 90): 2 to 6 h
Cmax [3, 10]: 4.65 ng/mL
AUC(0-t) [3, 10]: 56.7 ng·h/mL
Cmax [3, 11]: 35 ng/mL
AUC(0-t) [3, 11]: 526 ng·h/mL
Cmax [3, 12]: 4.03 ng/mL
AUC(0-t) [3, 12]: 36.3 ng·h/mL
Cmax [3, 13]: 410 ng/mL
AUC(0-t) [3, 13]: 6820 ng·h/mL
Cmax [3, 14]: 141 ng/mL
AUC(0-t) [3, 14]: 2310 ng·h/mL
Cmax [3, 15]: 8.68 ng/mL
AUC(0-t) [3, 15]: 132 ng·h/mL
Cmax [3, 16]: 3.84 ng/mL
AUC(0-t) [3, 16]: 37.7 ng·h/mL
Cmax [3, 17]: 88.7 ng/mL
AUC(0-t) [3, 17]: 1390 ng·h/mL
Cmax [3, 18]: 21.4 ng/mL
AUC(0-t) [3, 18]: 352 ng·h/mL
EC50 [4]: 7 nM
